Laboratory results published in patent US12171230B2, “Herbicidal compositions” (Bayer Aktiengesellschaft, priority 2018, dated 2024).

Tests used:
Type in all cases: in vivo
Phalaris minor [1] = assay: Post-emergence herbicidal action against Phalaris minor
Galium aparine = assay: Post-emergence herbicidal action against Galium aparine
Protocol: (§1) When the observed efficacies exceed the formal sum total of the values of the tests with individual applications, they also exceed the expected value according to Colby, which is calculated using the formula below and is likewise regarded as an indication of synergism (cf. S. R. Colby; in Weeds 15 (1967) p. 20 to 22): E^C=A+B−([…])
(§2) Here: • A=efficacy of the active compound (A) in % at an application rate of a g a.i./ha; • B=efficacy of the active compound (B) in % at an application rate of b g a.i./ha; • E^C=expected value of the effect of the combination (A)+(B) in % at the combined application rate a+b g a.i./ha.
(§3) Seeds or rhizome pieces of mono- and dicotyledonous weeds are placed in sandy loam in pots, covered with soil and grown in a greenhouse under good growth conditions (temperature, air humidity, water supply). Three weeks after sowing, the test plants were treated at the three-leaf stage with the compositions according to the invention. The compositions according to the invention formulated as spray powders or as emulsion concentrates were sprayed onto the green plant parts in various dosages with an application rate of 300 to 800 l/ha of water (equivalent). After the test plants have been left to stand in the greenhouse under optimal growth conditions for about 3 to 4 weeks, the action of the preparations is scored visually in comparison to untreated controls. The compositions according to the invention also have good post-emergence herbicidal activity against a broad spectrum of economically important gramineous and broadleaf weeds.

Lolium rigidum [2] = assay: Post-emergence herbicidal action against Lolium rigidum
Poa annua = assay: Post-emergence herbicidal action against Poa annua
Protocol: as §1, §2, §3

Viola tricolor = assay: Post-emergence herbicidal action against Viola tricolor
Bromus sterilis [3] = assay: Post-emergence herbicidal action against Bromus sterilis
Centaurea cyano = assay: Post-emergence herbicidal action against Centaurea cyano
Protocol: Seeds or rhizome pieces of mono- and dicotyledonous weeds are placed in sandy loam in pots, covered with soil and grown in a greenhouse under good growth conditions (temperature, air humidity, water supply). Three weeks after sowing, the test plants were treated at the three-leaf stage with the compositions according to the invention. The compositions according to the invention formulated as spray powders or as emulsion concentrates were sprayed onto the green plant parts in various dosages with an application rate of 300 to 800 l/ha of water (equivalent).

Matricaria inodora = assay: Post-emergence herbicidal action against Matricaria inodora
[4] = tested on: Lolium rigidum (resistant biotype); assay: Post-emergence herbicidal action against Lolium rigidum (resistant biotype); conditions: 16 g of a.i./ha
Description: (§4) The following abbreviations are used in the description and the tables that follow: • g of a.i./ha=grams of active substance (active ingredient) (=100% active compound) per hectare; • The sum total of the effects of the individual applications is reported under E^A; • expected values according to Colby are each reported under E^C.
(§5) The rating period is reported in days after application (DAT).

Lolium rigidum [5] = assay: Post-emergence herbicidal action against Lolium rigidum; conditions: 16 g of a.i./ha
Description: as §4, §5

Lamium purpureum = assay: Post-emergence herbicidal action against Lamium purpureum
Protocol: as §1, §2, §3

Bromus sterilis [6] = assay: Post-emergence herbicidal action against Bromus sterilis; conditions: (Z148) post-emergence; for Herbicidal action 14 DAT against Bromus sterilis: g of a.i./ha: 4, 1, 270, 90, 30, 4 + 270, 4 + 90, 4 + 30, 1 + 30
Description: as §4, §5

Phalaris minor [7] = assay: Post-emergence herbicidal action against Phalaris minor; conditions: 16 g of a.i./ha
Description: as §4, §5

CP(=O)(O)CCC(N)C(=O)O (stereo not shown) [(7.4) Glufosinate]
Herbicidal action (Phalaris minor [1]; 14 DAT, 50 g a.i./ha): 0% | Herbicidal action (Phalaris minor [1]; 14 DAT, 150 g a.i./ha): 30% | Herbicidal action (Phalaris minor [1]; 28 DAT, 50 g a.i./ha): 0% | Herbicidal action (Phalaris minor [1]; 28 DAT, 150 g a.i./ha): 10% | Herbicidal action (Phalaris minor [1]; 28 DAT, 450 g a.i./ha): 30% | Herbicidal action (Galium aparine; 28 DAT, 50 g a.i./ha): 0% | Herbicidal action (Lolium rigidum [2]; 14 DAT, 150 g a.i./ha): 50% | Herbicidal action (Lolium rigidum [2]; 14 DAT, resistant biotype, 150 g a.i./ha): 30% | Herbicidal action (Lolium rigidum [2]; 28 DAT, 150 g a.i./ha): 30% | Herbicidal action (Lolium rigidum [2]; 28 DAT, resistant biotype, 150 g a.i./ha): 30% | Herbicidal action (Lolium rigidum [2]; 28 DAT, resistant biotype, 450 g a.i./ha): 50% | Herbicidal action (Poa annua; 14 DAT, 50 g a.i./ha): 10% | Herbicidal action (Poa annua; 14 DAT, 150 g a.i./ha): 30% | Herbicidal action (Poa annua; 14 DAT, 450 g a.i./ha): 40% | Herbicidal action (Viola tricolor; 14 DAT, 150 g a.i./ha): 80% | Herbicidal action (Viola tricolor; 28 DAT, 50 g a.i./ha): 20% | Herbicidal action (Viola tricolor; 28 DAT, 150 g a.i./ha): 50% | Herbicidal action (Viola tricolor; 28 DAT, 450 g a.i./ha): 60% | Herbicidal action (Bromus sterilis [3]; 14 DAT, 50 g a.i./ha): 0% | Herbicidal action (Centaurea cyano; 14 DAT, 50 g a.i./ha): 30% | Herbicidal action (Centaurea cyano; 28 DAT, 450 g a.i./ha): 60% | Herbicidal action (Matricaria inodora; 14 DAT, 450 g a.i./ha): 90% | Herbicidal action (Matricaria inodora; 28 DAT, 450 g a.i./ha): 85%

COC(=O)C1=C[C@@H](NC(=O)[C@@]2(C)CC(c3cc(F)cc(F)c3)=NO2)CO1 [Compound A6, methyl (3R)-3-[[(5R)-3-(3,5-difluorophenyl)-5-methyl-4H-isoxazole-5-carbonyl]amino]-2,3-dihydrofuran-5-carboxylate]
Herbicidal action (Phalaris minor [1]; 28 DAT, 16 g a.i./ha): 90% | Herbicidal action 28 DAT against Galium aparine (Galium aparine; 1 g of a.i./ha): 60% | Herbicidal action 28 DAT against Lolium rigidum (resistant biotype) [4]: 70% | Herbicidal action (Lolium rigidum [2]; 14 DAT, resistant biotype, 1 g a.i./ha): 50% | Herbicidal action (Lolium rigidum [2]; 28 DAT, resistant biotype, 16 g a.i./ha): 70% | Herbicidal action 28 DAT against Lolium rigidum (Lolium rigidum [5]): 90% | Herbicidal action 28 DAT against Poa annua L. (Poa annua; 16 g of a.i./ha): 70% | Herbicidal action (Poa annua; 28 DAT, 1 g a.i./ha): 50% | Herbicidal action (Poa annua; 28 DAT, 16 g a.i./ha): 70% | Herbicidal action 28 DAT against Lamium purpureum L. (Lamium purpureum; 1 g of a.i./ha): 75% | Herbicidal action 14 DAT against Lamium purpureum L. (Lamium purpureum; 4 g of a.i./ha): 85% | Herbicidal action (Viola tricolor; 28 DAT, 4 g a.i./ha): 50% | Herbicidal action (Viola tricolor; 28 DAT, 16 g a.i./ha): 60% | Herbicidal action 28 DAT against Bromus sterilis (Bromus sterilis [6]; g of a.i./ha: 1, 270, 90, 30, 1 + 270, 1 + 90, 1 + 30): 50% | Herbicidal action 14 DAT against Bromus sterilis (Bromus sterilis [6]; 1 g of a.i./ha): 75% | Herbicidal action 14 DAT against Bromus sterilis (Bromus sterilis [6]; 4 g of a.i./ha): 80% | Herbicidal action 28 DAT against Phalaris minor (Phalaris minor [7]): 90% | Herbicidal action (Bromus sterilis [3]; 14 DAT, 4 g a.i./ha): 80% | Herbicidal action (Bromus sterilis [3]; 14 DAT, 16 g a.i./ha): 85% | Herbicidal action (Bromus sterilis [3]; 28 DAT, 1 g a.i./ha): 50% | Herbicidal action (Centaurea cyano; 14 DAT, 1 g a.i./ha): 40% | Herbicidal action (Centaurea cyano; 14 DAT, 4 g a.i./ha): 85% | Herbicidal action (Centaurea cyano; 28 DAT, 1 g a.i./ha): 40% | Herbicidal action (Centaurea cyano; 28 DAT, 4 g a.i./ha): 70% | Herbicidal action (Matricaria inodora; 14 DAT, 1 g a.i./ha): 40% | Herbicidal action 14 DAT against Matricaria inodora (Matricaria inodora; 16 g of a.i./ha): 70%
